Data: US9168259B2 (GRÜNENTHAL GMBH, priority 2010, dated 2015)
Read-outs that look alike come from different tables or passages of the source.

Molecular target: T1, KCNQ2/3 channels (Homo sapiens, UniProt O43525+O43526)
T1 construct: expressed in transfected cells
Experiment: Fluorescence assay using a voltage sensitive dye (fluorimetry)
Format: cell-based
Conditions: for EC50: IC50 where % efficacy is negative, read-out: Fluorimetry EC50/IC50

[1] = CHO-K1, plateau effect relative to saturated retigabine (50 μM) = 100%, CHO-K1 cells expressing KCNQ2/3, negative values = antagonistic, read-out: Fluorimetry % efficacy (retigabine = 100%)
[2] = CHO-K1 cells expressing KCNQ2/3

T1 sequence (O43526 whole entry): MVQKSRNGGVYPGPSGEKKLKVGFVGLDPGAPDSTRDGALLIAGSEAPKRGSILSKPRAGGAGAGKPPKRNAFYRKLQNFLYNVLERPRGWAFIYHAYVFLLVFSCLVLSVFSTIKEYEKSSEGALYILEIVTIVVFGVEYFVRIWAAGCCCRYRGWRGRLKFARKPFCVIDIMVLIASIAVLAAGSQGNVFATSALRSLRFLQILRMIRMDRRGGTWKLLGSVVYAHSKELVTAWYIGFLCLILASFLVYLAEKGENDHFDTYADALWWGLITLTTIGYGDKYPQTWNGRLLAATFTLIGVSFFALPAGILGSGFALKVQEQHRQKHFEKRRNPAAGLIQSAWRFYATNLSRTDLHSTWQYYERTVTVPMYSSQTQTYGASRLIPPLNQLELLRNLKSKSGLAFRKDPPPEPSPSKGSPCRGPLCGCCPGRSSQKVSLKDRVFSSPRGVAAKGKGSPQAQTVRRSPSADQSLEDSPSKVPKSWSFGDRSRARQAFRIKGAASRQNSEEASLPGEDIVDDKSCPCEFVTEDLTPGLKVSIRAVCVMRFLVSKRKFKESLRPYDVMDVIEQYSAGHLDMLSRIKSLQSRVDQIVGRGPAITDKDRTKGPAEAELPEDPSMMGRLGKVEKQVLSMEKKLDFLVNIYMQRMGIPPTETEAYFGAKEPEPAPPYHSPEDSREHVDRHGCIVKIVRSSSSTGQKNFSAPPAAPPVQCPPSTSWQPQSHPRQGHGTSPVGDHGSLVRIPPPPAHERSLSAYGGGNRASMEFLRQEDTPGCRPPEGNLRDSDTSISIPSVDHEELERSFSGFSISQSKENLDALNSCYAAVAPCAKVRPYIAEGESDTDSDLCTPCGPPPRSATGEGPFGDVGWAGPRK
T1 sequence (O43525 whole entry): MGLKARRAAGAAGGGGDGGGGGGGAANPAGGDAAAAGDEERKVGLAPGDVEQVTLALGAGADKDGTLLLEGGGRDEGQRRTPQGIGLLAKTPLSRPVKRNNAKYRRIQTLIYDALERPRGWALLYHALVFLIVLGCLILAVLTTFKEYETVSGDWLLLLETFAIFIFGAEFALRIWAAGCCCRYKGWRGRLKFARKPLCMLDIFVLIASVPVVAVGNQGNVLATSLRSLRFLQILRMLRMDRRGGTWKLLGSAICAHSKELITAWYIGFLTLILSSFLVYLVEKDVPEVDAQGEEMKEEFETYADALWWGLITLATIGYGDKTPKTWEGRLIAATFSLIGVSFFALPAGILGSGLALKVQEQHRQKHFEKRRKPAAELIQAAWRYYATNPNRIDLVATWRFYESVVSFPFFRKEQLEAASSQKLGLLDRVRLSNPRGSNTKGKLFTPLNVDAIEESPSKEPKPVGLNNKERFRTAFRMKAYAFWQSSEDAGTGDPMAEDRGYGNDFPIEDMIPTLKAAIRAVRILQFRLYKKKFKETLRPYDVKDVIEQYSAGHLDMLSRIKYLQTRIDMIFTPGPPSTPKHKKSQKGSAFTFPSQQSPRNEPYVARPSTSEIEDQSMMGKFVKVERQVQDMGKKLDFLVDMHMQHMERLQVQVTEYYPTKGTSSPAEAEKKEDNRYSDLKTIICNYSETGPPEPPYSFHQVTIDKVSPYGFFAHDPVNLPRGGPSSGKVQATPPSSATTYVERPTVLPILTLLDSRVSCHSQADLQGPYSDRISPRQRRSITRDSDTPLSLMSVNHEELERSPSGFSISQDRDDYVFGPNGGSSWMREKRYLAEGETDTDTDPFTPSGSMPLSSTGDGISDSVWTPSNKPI

Row | Compound | Emax [1] [%] | EC50 [2] [nM] | Emax (CHO-K1, read-out: Fluorimetry % efficacy (retigabine = 100%)) [%]
1 | COc1nc(N2CCOC[C@H]2C)cc(C)c1C(=O)NCc1ccc(F)cc1 [Example 181, N-[(4-Fluorophenyl)-methyl]-2-methoxy-4-methyl-6-[(3R)-3-methyl-morpholin-4-yl]-pyridine-3-carboxylic acid amide] | 167 | 255 | –
2 | CCSc1nc(N2CCOCC2)cc(C)c1C(=O)NCc1ccc(C(F)(F)F)cc1 [Example 60, 2-Ethylsulfanyl-4-methyl-6-morpholin-4-yl-N-[[4-(trifluoromethyl)-phenyl]methyl]-pyridine-3-carboxylic acid amide] | 128 | 126 | –
3 | CCCCCCNC(=O)c1c(C)cc(N2CCOCC2)nc1SCC [Example 217, 2-Ethylsulfanyl-N-hexyl-4-methyl-6-morpholin-4-yl-pyridine-3-carboxylic acid amide] | 181 | 407 | –
4 | CCSc1nc(N2CCO[C@@H](CO)C2)cc(C)c1C(=O)NCc1cccc(F)c1 [Example 292, 2-Ethylsulfanyl-N-[(3-fluorophenyl)-methyl]-6-[(2R)-2-(hydroxymethyl)-morpholin-4-yl]-4-methyl-pyridine-3-carboxylic acid amide] | 32 | – | –
5 | CCOc1nc(N2CCOCC2)cc(C)c1C(=O)NCCCC(C)(C)C [Example 89, N-(4,4-Dimethyl-pentyl)-2-ethoxy-4-methyl-6-morpholin-4-yl-pyridine-3-carboxylic acid amide] | 268 | 138 | –
6 | CCSc1nc(N2C3CCC2COC3)cc(C)c1C(=O)NCc1cccc(F)c1 [Example 345, 2-Ethylsulfanyl-N-[(3-fluorophenyl)-methyl]-4-methyl-6-(3-oxa-8-azabicyclo[3.2.1]octan-8-yl)-pyridine-3-carboxylic acid amide] | 200 | 122 | –
7 | CCOc1nc(N2CCOC[C@H]2C)cc(C)c1C(=O)NCc1ccc(F)cc1 [Example 182, 2-Ethoxy-N-[(4-fluorophenyl)-methyl]-4-methyl-6-[(3R)-3-methyl-morpholin-4-yl]-pyridine-3-carboxylic acid amide] | 146 | 125 | –
8 | CCSc1nc(N2CCOC[C@H]2C)cc(C)c1C(=O)NCc1ccc(F)c(COC)c1 [Example 352, 2-Ethylsulfanyl-N-[[4-fluoro-3-(methoxymethyl)-phenyl]-methyl]-4-methyl-6-[(3R)-3-methyl-morpholin-4-yl]-pyridine-3-carboxylic acid amide] | 166 | 287 | –
9 | CCSc1nc(N2CCCCC2)cc(C)c1C(=O)NCc1cccc(F)c1 [Example 32, 2-Ethylsulfanyl-N-[(3-fluorophenyl)-methyl]-4-methyl-6-piperidin-1-yl-pyridine-3-carboxylic acid amide] | 166 | 132 | –
10 | CCSc1nc(N(C)C)cc(C)c1C(=O)NCc1cccc(F)c1 [Example 33, 6-Dimethylamino-2-ethylsulfanyl-N-[(3-fluorophenyl)-methyl]-4-methyl-pyridine-3-carboxylic acid amide] | 110 | 639 | –
11 | Cc1cc(N2CCOC[C@H]2C)nc(C(C)C)c1C(=O)NCc1ccc(Cl)cc1 [Example 265, N-[(4-Chlorophenyl)-methyl]-2-isopropyl-4-methyl-6-[(3R)-3-methyl-morpholin-4-yl]-pyridine-3-carboxylic acid amide] | 206 | 28 | –
12 | COC[C@H]1COCCN1c1cc(C)c(C(=O)NCc2ccc(Cl)cc2)c(C(C)C)n1 [Example 277, N-[(4-Chlorophenyl)-methyl]-2-isopropyl-6-[(3S)-3-(methoxymethyl)-morpholin-4-yl]-4-methyl-pyridine-3-carboxylic acid amide] | 129 | 17 | –
13 | Cc1cc(N2CCOCC2)nc(C2CC2)c1C(=O)NCc1ccc(F)c(F)c1 [Example 332, 2-Cyclopropyl-N-[(3,4-difluoro-phenyl)-methyl]-4-methyl-6-morpholin-4-yl-pyridine-3-carboxylic acid amide] | 166 | 109 | –
14 | Cc1cc(N2CCOCC2)nc(N(C)C)c1C(=O)NCc1ccc(F)c(F)c1 [Example 206, N-[(3,4-Difluoro-phenyl)-methyl]-2-dimethylamino-4-methyl-6-morpholin-4-yl-pyridine-3-carboxylic acid amide] | 207 | 402 | –
15 | CCOC(=O)CN(C)c1cc(C)c(C(=O)NCc2cccc(F)c2)c(SCC)n1 [Example 72] | – | 2080 | 93
16 | CCCCCCCNC(=O)c1c(C)cc(N2CCOCC2)nc1SCC [Example 209, 2-Ethylsulfanyl-N-heptyl-4-methyl-6-morpholin-4-yl-pyridine-3-carboxylic acid amide] | 192 | 234 | –

Row | Compound | Emax [1] [%] | EC50 [2] [nM] | Emax (CHO-K1, read-out: Fluorimetry % efficacy (retigabine = 100%)) [%]
17 | Cc1cc(N2CCOCC2)nc(C2CC2)c1C(=O)NCc1ccc(Cl)cc1 [Example 335, N-[(4-Chlorophenyl)-methyl]-2-cyclopropyl-4-methyl-6-morpholin-4-yl-pyridine-3-carboxylic acid amide] | 162 | 85 | –
18 | CCSc1nc(N2CCOCC2)cc(C)c1C(=O)NCc1ccc(F)c(COC)c1 [Example 149, 2-Ethylsulfanyl-N-[[4-fluoro-3-(methoxymethyl)-phenyl]-methyl]-4-methyl-6-morpholin-4-yl-pyridine-3-carboxylic acid amide] | 136 | 451 | –
19 | CCSc1nc(N2CCOC[C@H]2COC)cc(C)c1C(=O)NCc1ccc(Cl)cc1 [Example 256, N-[(4-Chlorophenyl)-methyl]-2-ethylsulfanyl-6-[(3R)-3-(methoxymethyl)-morpholin-4-yl]-4-methyl-pyridine-3-carboxylic acid amide] | 221 | 101 | –
20 | CCOc1nc(N2CCOCC2)cc(C)c1C(=O)NCc1ccccc1-c1ccccc1 [Example 92, 2-Ethoxy-4-methyl-6-morpholin-4-yl-N-[(2-phenyl-phenyl)-methyl]-pyridine-3-carboxylic acid amide] | -79 | 128 | –
21 | CC(=O)N(C)c1nc(N2CCOCC2)cc(C)c1C(=O)NCc1cccc(F)c1 [Example 341, 2-(Acetyl-methyl-amino)-N-[(3-fluorophenyl)-methyl]-4-methyl-6-morpholin-4-yl-pyridine-3-carboxylic acid amide] | 22 | – | –
22 | Cc1cc(N2CCOCC2)nc(C(C)C)c1C(=O)NCc1ccc(Cl)cc1 [Example 327, N-[(4-Chlorophenyl)-methyl]-2-isopropyl-4-methyl-6-morpholin-4-yl-pyridine-3-carboxylic acid amide] | 173 | 50 | –
23 | CCCc1nc(N2CCOCC2)cc(C)c1C(=O)NCc1ccc(F)c(F)c1 [Example 321, N-[(3,4-Difluoro-phenyl)-methyl]-4-methyl-6-morpholin-4-yl-2-propyl-pyridine-3-carboxylic acid amide] | 162 | 83 | –
24 | CCSc1nc(N2CCOC[C@H]2COC)cc(C)c1C(=O)NCc1cccc(F)c1 [Example 179, 2-Ethylsulfanyl-N-[(3-fluorophenyl)-methyl]-6-[(3R)-3-(methoxymethyl)-morpholin-4-yl]-4-methyl-pyridine-3-carboxylic acid amide] | 190 | 243 | –
25 | CCSc1nc(N2CCOC[C@@H]2COC)cc(C)c1C(=O)NCc1ccc(Cl)cc1 [Example 257, N-[(4-Chlorophenyl)-methyl]-2-ethylsulfanyl-6-[(3S)-3-(methoxymethyl)-morpholin-4-yl]-4-methyl-pyridine-3-carboxylic acid amide] | 125 | 23 | –
26 | CCSc1nc(N2CCOCC2=O)cc(C)c1C(=O)NCc1cccc(F)c1 [Example 312, 2-Ethylsulfanyl-N-[(3-fluorophenyl)-methyl]-4-methyl-6-(3-oxo-morpholin-4-yl)-pyridine-3-carboxylic acid amide] | 135 | 6700 | –
27 | Cc1cc(N2CCOCC2)nc(OCC(F)F)c1C(=O)NCc1ccc(Cl)cc1 [Example 270, N-[(4-Chlorophenyl)-methyl]-2-(2,2-difluoro-ethoxy)-4-methyl-6-morpholin-4-yl-pyridine-3-carboxylic acid amide] | 97 | 24 | –
28 | CCN(C)c1nc(N2CCOCC2)cc(C)c1C(=O)NCc1ccc(Cl)cc1 [Example 191, N-[(4-Chlorophenyl)-methyl]-2-(ethyl-methyl-amino)-4-methyl-6-morpholin-4-yl-pyridine-3-carboxylic acid amide] | 214 | 265 | –
29 | CCSc1nc(N2CCn3cc(C(F)(F)F)nc3C2)cc(C)c1C(=O)NCc1cccc(F)c1 [Example 243, 2-Ethylsulfanyl-N-[(3-fluorophenyl)-methyl]-4-methyl-6-[2-(trifluoromethyl)-5,6,7,8-tetrahydro-imidazo[1,2-a]pyrazin-7-yl]-pyridine-3-carboxylic acid amide] | 105 | 1280 | –
30 | CCSc1nc(N(CCOC)Cc2ccc(F)cc2)cc(C)c1C(=O)NCc1cccc(F)c1 [Example 342, 2-Ethylsulfanyl-N-[(3-fluorophenyl)-methyl]-6-[(4-fluorophenyl)-methyl-(2-methoxy-ethyl)-amino]-4-methyl-pyridine-3-carboxylic acid amide] | 124 | 291 | –
31 | CCSc1nc(N2CCC3(COC3)C2)cc(C)c1C(=O)NCc1cccc(F)c1 [Example 222, 2-Ethylsulfanyl-N-[(3-fluorophenyl)-methyl]-4-methyl-6-(2-oxa-6-azaspiro[3.4]octan-6-yl)-pyridine-3-carboxylic acid amide] | 56 | 7310 | –
32 | CCSc1nc(N2CCc3ccccc32)cc(C)c1C(=O)NCc1cccc(F)c1 [Example 305, 6-(2,3-Dihydro-1H-indol-1-yl)-2-ethylsulfanyl-N-[(3-fluorophenyl)-methyl]-4-methyl-pyridine-3-carboxylic acid amide] | 57 | – | –
